Results: BindingDB's records for patent US20250163061 (Bala Therapeutics, 2025)
pEC50: −log10 of the molar value.

target: T1, Menin (Homo sapiens, UniProt O00255); assay: Primary Assay Used to Determine Potency of MEN1 Activity Inhibition
T1 sequence (O00255 whole entry): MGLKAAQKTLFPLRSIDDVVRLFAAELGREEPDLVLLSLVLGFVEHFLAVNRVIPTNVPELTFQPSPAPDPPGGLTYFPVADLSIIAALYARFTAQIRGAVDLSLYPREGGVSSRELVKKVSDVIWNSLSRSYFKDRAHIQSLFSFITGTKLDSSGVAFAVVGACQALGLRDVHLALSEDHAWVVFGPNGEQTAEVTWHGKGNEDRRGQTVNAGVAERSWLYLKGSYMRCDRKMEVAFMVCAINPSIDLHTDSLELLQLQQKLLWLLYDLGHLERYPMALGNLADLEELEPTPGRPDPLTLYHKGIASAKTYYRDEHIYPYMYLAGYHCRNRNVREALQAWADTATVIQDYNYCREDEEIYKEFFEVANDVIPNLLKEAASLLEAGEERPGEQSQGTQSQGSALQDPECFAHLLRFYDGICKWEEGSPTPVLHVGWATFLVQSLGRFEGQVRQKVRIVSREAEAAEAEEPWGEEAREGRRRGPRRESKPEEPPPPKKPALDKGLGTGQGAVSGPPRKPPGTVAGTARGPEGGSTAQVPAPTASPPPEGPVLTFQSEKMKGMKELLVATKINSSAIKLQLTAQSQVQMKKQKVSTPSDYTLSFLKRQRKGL
Method: Compound activity was determined using recombinant MEN1 protein (Creativebiomart, Cat #MEN1-35H) and a custom fluorescein-labeled MLL4-43 peptide (Eton Bioscience Inc.). Interaction between MEN1 and MLL4-43 in the presence of compounds was determined by fluorescence polarization assay using a Microplate Reader ClarioStar Plus. The reaction was carried out in assay buffer (50 mM TRIS-HCl pH 7.4-7.6, 50 mM NaCl, 1 mM DTT, 0.1 mg/ml BSA). The compounds were dispensed on a 384 well Diamond Well Plate (Axigen, Cat #P-384-120SQ-C-S) using the Biomek FX liquid handling system at 100× solutions of compounds in DMSO. 2×MEN1 mix (final concentration of MEN1 10 nM) was prepared in Assay buffer and 10 μl of mixture per well was added into 384 w white Reaction plate with NBS (Corning, Cat #4513). 10 μl of Assay buffer w/o MEN1 was used for negative control. Plates were centrifuged for 1 min at 100 g. Next step the Compounds were added to Reaction plate using Biomek station via following steps: 3 μl of 100× compounds (in DMSO) were mixed thoroughly with 27 μl Assay Buffer, then 2 μl of this mixture was added to Reaction plate with 10 μl of MEN1 mix. Plates were centrifuged for 1 min at 100 g and incubated for 20 min at room temperature. Next 8 μL of MLL4-43 peptide per well was added to final concentration of MLL 0.5 nM. Plates were incubated for 1 hour at room temperature. Then fluorescence polarization was measured using Microplate Reader.

Compound	pEC50
N#Cc1cc2cc(CN3CCC4(CC3)CN(c3ncnc5ccc(CC(F)(F)F)cc35)C4)ccc2[nH]1	> 7.12
Cc1c(CN2CCC3(CC2)CN(c2ncnc4ccc(OC(F)(F)F)cc24)C3)ccc2c1cc(C#N)n2C[C@@H]1CNC(=O)CO1 [US20250163061, Compound 1]	> 7.12
Cc1c(CN2CCC3(CC2)CN(c2ncnc4ccc(CC(F)(F)F)c(F)c24)C3)ccc2c1cc(C#N)n2CC1CNC(=O)CO1 (stereo not drawn) [US20250163061, Compound 12]	> 7.12
Cc1c(CN2CCC3(CC2)CN(c2ncnc4ccc(CC(F)(F)F)cc24)C3)ccc2c1cc(C#N)n2C(C)CCN1CCN(S(C)(=O)=O)CC1 (stereo not drawn) [US20250163061, Compound 13]	> 7.12
Cc1c(CN2CCC3(CC2)CN(c2ncnc4ccc(CC(F)(F)F)cc24)C3)ccc2c1cc(C#N)n2Cc1ccc(=O)[nH]c1 [US20250163061, Compound 14]	> 7.12
CCCCS(=O)(=O)N1CCN(C(C)Cn2c(C#N)cc3c(C)c(CN4CCC5(CC4)CN(c4ncnc6ccc(CC(F)(F)F)cc46)C5)ccc32)CC1 (stereo not drawn) [US20250163061, Compound 17]	> 7.12
COc1cc2c(cc1CN1CCC3(CC1)CN(c1ncnc4ccc(CC(F)(F)F)cc14)C3)cc(C#N)n2CC(C)N1CCN(S(C)(=O)=O)CC1 (stereo not drawn) [US20250163061, Compound 20]	> 7.12
Cc1c(CN2CCC3(CC2)CN(c2ncnc4ccc(CC(F)(F)F)cc24)C3)ccc2c1cc(C#N)n2[C@H](C)CN1CCN(S(C)(=O)=O)CC1 [US20250163061, Compound 23]	> 7.12
Cc1c(CN2CCC3(CC2)CN(c2ncnc4ccc(CC(F)(F)F)cc24)C3)ccc2c1cc(C#N)n2[C@@H](C)CN1CCN(S(C)(=O)=O)CC1 [US20250163061, Compound 24]	> 7.12
CCS(=O)(=O)N1CCN([C@H](C)Cn2c(C#N)cc3c(C)c(CN4CCC5(CC4)CN(c4ncnc6ccc(CC(F)(F)F)cc46)C5)ccc32)C[C@@H]1C [US20250163061, Compound 25]	> 7.12
CCS(=O)(=O)N1CCN([C@@H](C)Cn2c(C#N)cc3c(C)c(CN4CCC5(CC4)CN(c4ncnc6ccc(CC(F)(F)F)cc46)C5)ccc32)C[C@@H]1C [US20250163061, Compound 26]	> 7.12
Cc1c(CN2CCC3(CC2)CN(c2ncnc4ccc(CC(F)(F)F)cc24)C3)ccc2c1cc(C#N)n2C[C@@H](C)N1CCN(S(C)(=O)=O)[C@@H](C)C1 [US20250163061, Compound 27]	> 7.12
Cc1c(CN2CCC3(CC2)CN(c2ncnc4ccc(CC(F)(F)F)cc24)C3)ccc2c1cc(C#N)n2C[C@H](C)N1CCN(S(C)(=O)=O)[C@@H](C)C1 [US20250163061, Compound 28]	> 7.12
Cc1c(CN2CCC3(CC2)CN(c2ncnc4ccc(CC(F)(F)F)cc24)C3)ccc2c1cc(C#N)n2CC(C)N1CCCN(S(C)(=O)=O)CC1 (stereo not drawn) [US20250163061, Compound 29]	> 7.12
Cc1c(CN2CCC3(CC2)CN(c2ncnc4cc(F)c(CC(F)(F)F)cc24)C3)ccc2c1cc(C#N)n2CC(C)N1CCN(S(C)(=O)=O)CC1 (stereo not drawn) [US20250163061, Compound 30]	> 7.12
Cc1c(CN2CCC3(CC2)CN(c2ncnc4ncc(CC(F)(F)F)nc24)C3)ccc2c1cc(C#N)n2CC(C)N1CCN(S(C)(=O)=O)CC1 (stereo not drawn) [US20250163061, Compound 42]	> 7.12
Cc1c(CN2CCC3(CC2)CN(c2ncnc4ccc(CC(F)(F)F)cc24)C3)ccc2c1cc(C#N)n2CCCCN1CCN(S(C)(=O)=O)CC1 [US20250163061, Compound 44]	> 7.12
Cc1c(CN2CCC3(CC2)CN(c2ncnc4cnc(CC(F)(F)F)cc24)C3)ccc2c1cc(C#N)n2CC(C)N1CCN(S(C)(=O)=O)CC1 (stereo not drawn) [US20250163061, Compound 45]	> 7.12
Cc1c(CN2CCC3(CC2)CN(c2ncnc4ccc(CC(F)(F)F)c(F)c24)C3)ccc2c1cc(C#N)n2C[C@H](C)N1CCN(S(C)(=O)=O)CC1 [US20250163061, Compound 57]	> 7.12
CNc1nc(N2CC3(CCN(Cc4ccc5c(cc(C#N)n5C[C@@H]5CNC(=O)CO5)c4C)CC3)C2)c2cc(CC(F)(F)F)ccc2n1 [US20250163061, Compound 58]	> 7.12
CC(=O)NC12CC(Cn3c(C#N)cc4c(C)c(CN5CCC6(CC5)CN(c5ncnc7ccc(CC(F)(F)F)cc57)C6)ccc43)(C1)C2 [US20250163061, Compound 59]	> 7.12
CNC(=O)NC12CC(Cn3c(C#N)cc4c(C)c(CN5CCC6(CC5)CN(c5ncnc7ccc(CC(F)(F)F)cc57)C6)ccc43)(C1)C2 [US20250163061, Compound 60]	> 7.12
Cc1c(CN2CCC3(CC2)CN(c2ncnc4ccc(CC(F)(F)F)cc24)C3)ccc2c1cc(C#N)n2CC12CC(NS(N)(=O)=O)(C1)C2 [US20250163061, Compound 61]	> 7.12
Cc1c(CN2CCC3(CC2)CN(c2ncnc4ccc(CC(F)(F)F)cc24)C3)ccc2c1cc(C#N)n2CC12CC(N3CC(=O)NS3(=O)=O)(C1)C2 [US20250163061, Compound 62]	> 7.12
C=CC(=O)N1CCN(C(C)Cn2c(C#N)cc3c(C)c(CN4CCC5(CC4)CN(c4ncnc6ccc(CC(F)(F)F)cc46)C5)ccc32)CC1 (stereo not drawn) [US20250163061, Compound 63]	> 7.12
Cc1c(CN2CCC3(CC2)CN(c2ncnc4ccc(CC(F)(F)F)cc24)C3)ccc2c1cc(C#N)n2CC(C)N1CCN(S(=O)(=O)C(C)C)CC1 (stereo not drawn) [US20250163061, Compound 64]	> 7.12
C=CC(=O)N1CCN(CCCCn2c(C#N)cc3c(C)c(CN4CCC5(CC4)CN(c4ncnc6ccc(CC(F)(F)F)cc46)C5)ccc32)CC1 [US20250163061, Compound 65]	> 7.12
C=CC(=O)N1CCN(CCCn2c(C#N)cc3c(C)c(CN4CCC5(CC4)CN(c4ncnc6ccc(CC(F)(F)F)cc46)C5)ccc32)CC1 [US20250163061, Compound 66]	> 7.12
Cc1c(CN2CCC3(CC2)CN(c2ncnc4ccc(CC(F)(F)F)nc24)C3)ccc2c1cc(C#N)n2CC(C)N1CCN(S(C)(=O)=O)CC1 (stereo not drawn) [US20250163061, Compound 67]	> 7.12
Cc1c(CN2CCC3(CC2)CN(c2ncnc4ccc(CC(F)(F)F)cc24)C3)ccc2[nH]c(C#N)cc12 [US20250163061, Compound 68]	> 7.12

Next, values leading:

pEC50	Compound
> 7.12	Cc1c(CN2CCC3(CC2)CN(c2ncnc4ccc(CC(F)(F)F)cc24)C3)ccc2c1cc(C#N)n2CCN1CCNC1=O
> 7.12	Cc1c(CN2CCC3(CC2)CN(c2ncnc4ccc(CC(F)(F)F)cc24)C3)ccc2c1cc(C#N)n2CC12CC(NS(C)(=O)=O)(C1)C2
> 7.12	Cc1c(CN2CCC3(CC2)CN(c2ncnc4ccc(CC(F)(F)F)cc24)C3)ccc2c1cc(C#N)n2CC1CCNC(=O)CO1 (stereo not drawn) [US20250163061, Compound 2]
> 7.12	Cc1c(CN2CCC3(CC2)CN(c2ncnc4ccc(CC(F)(F)F)cc24)C3)ccc2c1cc(C#N)n2CC1CNC(=O)NC1 [US20250163061, Compound 4]
> 7.12	Cc1c(CN2CCC3(CC2)CN(c2ncnc4ccc(CC(F)(F)F)cc24)C3)ccc2c1cc(C#N)n2CC1CCNC(=O)CC1 (stereo not drawn) [US20250163061, Compound 5]
> 7.12	Cc1c(CN2CCC3(CC2)CN(c2ncnc4ccc(CC(F)(F)F)cc24)C3)ccc2c1cc(C#N)n2CC1CNC(=O)C(C)O1 (stereo not drawn) [US20250163061, Compound 7]
> 7.12	Cc1c(CN2CCC3(CC2)CN(c2ncnc4ccc(CC(F)(F)F)cc24)C3)ccc2c1cc(C#N)n2CC1CN(C)C(=O)CO1 (stereo not drawn) [US20250163061, Compound 15]
> 7.12	Cc1c(CN2CCC3(CC2)CN(c2ncnc4ccc(CC(F)(F)F)cc24)C3)ccc2c1cc(C#N)n2CC1CN(C)S(=O)(=O)CO1 (stereo not drawn) [US20250163061, Compound 16]
> 7.12	Cc1c(CN2CCC3(CC2)CN(c2ncnc4ccc(CC(F)(F)F)cc24)C3)ccc2c1cc(C#N)n2CC1CNS(=O)(=O)CO1 (stereo not drawn) [US20250163061, Compound 21]
> 7.12	Cc1c(CN2CCC3(CC2)CN(c2ncnc4ccc(CC(F)(F)F)cc24)C3)ccc2c1cc(C#N)n2CC1CCNC(=O)C1 (stereo not drawn) [US20250163061, Compound 22]
> 7.12	Cc1c(CN2CCC3(CC2)CN(c2ncnc4ccc(CC(F)(F)F)cc24)C3)ccc2c1cc(C#N)n2C[C@H]1CC[C@H](NS(C)(=O)=O)CC1 [US20250163061, Compound 40]
> 7.12	Cc1c(CN2CCC3(CC2)CN(c2ncnc4ccc(CC(F)(F)F)cc24)C3)ccc2c1cc(C#N)n2CC1CNC(=O)C1 (stereo not drawn) [US20250163061, Compound 51]
> 7.12	Cc1c(CN2CCC3(CC2)CN(c2ncnc4ccc(CC(F)(F)F)cc24)C3)ccc2c1cc(C#N)n2CC1CCC(=O)N1 (stereo not drawn) [US20250163061, Compound 52]
